Test results: patent publication US20260345591A1, “COMBINATIONS OF ESTROGEN RECEPTOR DEGRADERS AND CDK4 INHIBITORS” (PFIZER INC., priority 2023, published 2026)
“Also recorded” adds a separate entry of the source. Blank lines part the entries; values can stand above or below the compound they belong to.

What was measured:
[1] = test system: HR+HER2− BC Xenograft Model MCF7; experiment: Tumor regrowth after end of treatment in MCF7 xenograft model; assay type: in vivo, Mus musculus (NSG mice); conditions: fulvestrant 10 mg/kg alone; Compound A 30 mg/kg QD alone; palbociclib 10 mg/kg BID + Compound A 30 mg/kg QD
Method: (§1) To establish the MCF7 P1, when tumor volume of MCF7 PO donor mice reached a range of 700 to 800 mm3, tumors were collected and cut into fragments. The fragments were subsequently transplanted into secondary recipient mice for TGI study expansion. Secondary recipient mice were than randomly assigned to groups (n=10) when tumor volumes reached a range between 143 mm3 and 209 mm3 and subsequently treated with: 1) vehicle (0.5% methylcellulose A4M/water), PO; 2) fulvestrant at 10 mg/kg twice in the first week, then weekly afterwards, SC; 3) Compound A at 30 mg/kg QD, PO; 4) Compound B at 30 mg/kg BID, PO; 5) Compound B at 60 mg/kg BID, PO; 6) Compound B at 30 mg/kg plus fulvestrant; 7) Compound B at 60 mg/kg plus fulvestrant; 8) Compound B at 30 mg/kg plus Compound A; 9) Compound B at 60 mg/kg plus […]; 10) palbociclib at 10 mg/kg BID, PO plus Compound A. All mice received treatment continuously until Day 42. TGI was assessed on Day 41 post first dose.
For the efficacy measurements, tumor volume and body weights were collected twice a week. Tumor volume was calculated using the [(Length×Width×Width)/2)] formula. TGI was calculated as 100*(1−ΔT/ΔC). […]
Tumor growth delay was monitored after treatment was discontinued on Day 43 and statistical analysis was performed on Day 26 post last dose (Day 69 post study start).

[2] = Biopharmaceutics Classification System (solubility/permeability); assay type: physicochemical
[3] = Interconversion to epimer; assay type: physicochemical
MCF7 xenograft model = experiment: Tumor growth inhibition (anti-tumor efficacy) in MCF7 xenograft model, HR+/HER2- breast cancer; assay type: in vivo, Mus musculus (NSG mice); conditions: for TGI / TGI, statistical significance (ANCOVA): Day 41
Method: To generate MCF7 PO donors, cells were obtained from ATCC and cultured in RPM11640 supplemented with 10% FBS. All cells were maintained in a humidified incubator at 37 °C with 5% CO2.
To establish the MCF7 PO donor mice, cells (5×10^6/mouse with 50% Cultrex® Basement Membrane Matrix) were subcutaneously (in 0.2 mL total volume) implanted in female NSG mice supplemented with 17β-ESTRADIOL water ad libidum (8.5 μg/mL concentration). The 17β-ESTRADIOL water supplement was administered about 7 days before the implant and all throughout the duration of the study.
as §1
For the efficacy measurements, tumor volume and body weights were collected twice a week. Tumor volume was calculated using the [(Length×Width×Width)/2)] formula. TGI was calculated as 100*(1−ΔT/ΔC). The ΔC (ΔT) was obtained by subtracting the mean tumor burden in the vehicle (treated) group on the first day of treatment (Day 0) from the mean tumor burden in vehicle (treated) group on the assessment day. Statistical analysis was performed using TGI Analyzer ANCOVA. BLISS statistical analysis (statistical modeling of single drug response from drug combination data) was used to measure synergy effect, a combination is synergistic if the tumor volume is less than the BLISS with pvalue of <0.05.
Compound B was tested at two CRD dose levels (30 mg/kg, BID and 60 mg/kg, BID) as a single agent or in combination with Compound A at 30 mg/kg QD or fulvestrant at CRD (10 mg/kg). Palbociclib at CRD (10 mg/kg, BID) in combination with Compound A served as a positive comparator.

[4] = Preclinical exposure of epimer Compound C compared to Compound A; assay type: in vivo; conditions: preclinical data
estrogen receptor = biological target: T1, estrogen receptor (Homo sapiens, UniProt P03372); experiment: Degradation of the estrogen receptor; assay type: cell-based; conditions: preclinical data
T1 construct: cereblon-recruiting PROTAC degradation
T1 sequence (P03372 1-595): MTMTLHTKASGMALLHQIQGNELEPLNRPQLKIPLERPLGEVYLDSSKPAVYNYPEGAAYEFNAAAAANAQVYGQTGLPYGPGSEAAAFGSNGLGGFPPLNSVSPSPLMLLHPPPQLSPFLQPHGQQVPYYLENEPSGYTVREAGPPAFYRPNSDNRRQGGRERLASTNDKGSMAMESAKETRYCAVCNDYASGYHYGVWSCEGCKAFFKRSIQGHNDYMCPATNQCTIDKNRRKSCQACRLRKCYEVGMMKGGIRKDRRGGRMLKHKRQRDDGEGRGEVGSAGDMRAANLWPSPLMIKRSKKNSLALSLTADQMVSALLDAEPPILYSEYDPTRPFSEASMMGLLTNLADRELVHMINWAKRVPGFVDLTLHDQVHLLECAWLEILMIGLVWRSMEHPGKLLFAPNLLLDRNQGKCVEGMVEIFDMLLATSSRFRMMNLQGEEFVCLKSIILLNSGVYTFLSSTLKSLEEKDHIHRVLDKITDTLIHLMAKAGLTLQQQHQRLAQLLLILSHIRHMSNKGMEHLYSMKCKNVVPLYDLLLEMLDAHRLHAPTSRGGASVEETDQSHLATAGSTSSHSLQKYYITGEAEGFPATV

[5] = fulvestrant 10 mg/kg alone, Compound A 30 mg/kg QD alone, palbociclib 10 mg/kg BID + Compound A 30 mg/kg QD

- interconversion to epimer Compound C [3]: can interconvert to its epimer
SMILES: O=C1CC[C@H](N2Cc3cc(N4CCN(CC5CCN(c6ccc([C@@H]7c8ccc(O)cc8CC[C@@H]7c7ccccc7)cc6)CC5)CC4)ccc3C2=O)C(=O)N1 [Compound A, (S)-3-(5-(4-((1-(4-((1R,2S)-6-hydroxy-2-phenyl-1,2,3,4-tetrahydronaphthalen-1-yl)phenyl)piperidin-4-yl)methyl)piperazin-1-yl)-1-oxoisoindolin-2-yl)piperidine-2,6-dione]
- Tumor regrowth, ANCOVA Analysis (Day 26 post end of treatment) [1]: β (indicates p < 0.05 versus Compound B single agent)
- Biopharmaceutics Classification System class [2]: Class IV compound (low solubility/low permeability)
- TGI (MCF7 xenograft model; Compound A 30 mg/kg PO QD × 42 D): 119%
- TGI, statistical significance (ANCOVA) (MCF7 xenograft model; Compound A 30 mg/kg QD, alone or with palbociclib 10 mg/kg BID): *α+βγ
- antitumor efficacy (MCF7 xenograft model; [5]): significant tumor regression; also recorded: no significant differences in the TGI

- exposure of Compound C compared to Compound A [4]: < 26%
- degradation of the estrogen receptor (estrogen receptor): does not degrade the estrogen receptor
SMILES: O=C1CC[C@@H](N2Cc3cc(N4CCN(CC5CCN(c6ccc([C@@H]7c8ccc(O)cc8CC[C@@H]7c7ccccc7)cc6)CC5)CC4)ccc3C2=O)C(=O)N1 [Compound C]

SMILES: C[C@]12CC[C@@H]3c4ccc(O)cc4C[C@@H](CCCCCCCCC[S+]([O-])CCCC(F)(F)C(F)(F)F)[C@H]3[C@@H]1CC[C@@H]2O (stereo partly drawn) [Fulvestrant, fulvestrant, reference compound]
- TGI (MCF7 xenograft model; fulvestrant 10 mg/kg SC, D 1, D 3, then 1x/week × 5 W): −7%
- antitumor efficacy (MCF7 xenograft model; [5]): no tumor growth inhibition

SMILES: CC(C)n1c(C(C)(C)O)nc2c(F)cc(-c3nc(N[C@@H]4CCOC[C@H]4O)ncc3Cl)cc21 [Compound B, 1,5-anhydro-3-({5-chloro-4-[4-fluoro-2-(2-hydroxypropan-2-yl)-1-(propan-2-yl)-1H-benzimidazol-6-yl]pyrimidin-2-yl}amino)-2,3-dideoxy-D-threo-pentitol]
- TGI (MCF7 xenograft model; Compound B 30 mg/kg PO BID × 42 D): 62%
- TGI (MCF7 xenograft model; Compound B 60 mg/kg PO BID × 42 D): 81%
- TGI, statistical significance (ANCOVA) (MCF7 xenograft model; Compound B at 30 mg/kg BID, alone or + fulvestrant 10 mg/kg): *α ^
- TGI, statistical significance (ANCOVA) (MCF7 xenograft model; Compound B at 60 mg/kg BID, alone, + fulvestrant 10 mg/kg or + Compound A 30 mg/kg QD): *+α
- antitumor efficacy (MCF7 xenograft model; Compound B at 30 and 60 mg/kg BID, alone or + Compound A 30 mg/kg QD): significant tumor growth inhibition; also recorded: significant efficacy
